The values below come from patent publication US8835420B2, “Azaindole derivatives” (Takeda Pharmaceutical Company Limited, priority 2012, dated 2014).

The term IC50 denotes the concentration that inhibits the measured activity by half.

The target of the experiment is T1, PI3Kδ (recombinant GST-tagged PIK3CD co-expressed with PIK3R1, p85α) (Homo sapiens, UniProt O00329).
T1 construct: The protein is full length and co-expressed with untagged PIK3R1; GST; purchased Invitrogen PV5274
T1 sequence (O00329 whole entry): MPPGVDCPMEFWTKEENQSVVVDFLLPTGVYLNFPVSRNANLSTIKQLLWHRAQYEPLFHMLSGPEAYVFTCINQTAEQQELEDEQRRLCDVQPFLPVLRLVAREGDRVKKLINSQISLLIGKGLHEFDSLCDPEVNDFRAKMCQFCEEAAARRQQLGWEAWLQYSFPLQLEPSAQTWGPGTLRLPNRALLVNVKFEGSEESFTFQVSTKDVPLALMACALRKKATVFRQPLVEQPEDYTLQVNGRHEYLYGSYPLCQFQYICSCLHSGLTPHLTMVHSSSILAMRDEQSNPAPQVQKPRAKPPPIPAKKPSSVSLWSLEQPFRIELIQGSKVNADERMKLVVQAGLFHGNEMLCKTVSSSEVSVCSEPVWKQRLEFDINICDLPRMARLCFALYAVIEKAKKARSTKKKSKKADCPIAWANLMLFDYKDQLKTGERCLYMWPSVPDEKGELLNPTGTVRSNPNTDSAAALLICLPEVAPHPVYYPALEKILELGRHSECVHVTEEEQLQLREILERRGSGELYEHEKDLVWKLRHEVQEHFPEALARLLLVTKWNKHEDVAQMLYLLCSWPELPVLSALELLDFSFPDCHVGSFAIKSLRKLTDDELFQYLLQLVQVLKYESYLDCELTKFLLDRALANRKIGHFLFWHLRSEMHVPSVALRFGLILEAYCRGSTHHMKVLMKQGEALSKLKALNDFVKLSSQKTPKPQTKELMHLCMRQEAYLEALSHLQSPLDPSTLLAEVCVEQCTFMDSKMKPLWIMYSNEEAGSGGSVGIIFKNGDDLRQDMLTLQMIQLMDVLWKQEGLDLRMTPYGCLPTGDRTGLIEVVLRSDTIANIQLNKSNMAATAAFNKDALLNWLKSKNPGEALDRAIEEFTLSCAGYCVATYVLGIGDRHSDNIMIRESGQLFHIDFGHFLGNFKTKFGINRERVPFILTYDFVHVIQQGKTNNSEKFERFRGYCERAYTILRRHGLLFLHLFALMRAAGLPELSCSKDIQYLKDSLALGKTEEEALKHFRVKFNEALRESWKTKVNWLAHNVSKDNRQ
T1 sequence (P27986 whole entry partner): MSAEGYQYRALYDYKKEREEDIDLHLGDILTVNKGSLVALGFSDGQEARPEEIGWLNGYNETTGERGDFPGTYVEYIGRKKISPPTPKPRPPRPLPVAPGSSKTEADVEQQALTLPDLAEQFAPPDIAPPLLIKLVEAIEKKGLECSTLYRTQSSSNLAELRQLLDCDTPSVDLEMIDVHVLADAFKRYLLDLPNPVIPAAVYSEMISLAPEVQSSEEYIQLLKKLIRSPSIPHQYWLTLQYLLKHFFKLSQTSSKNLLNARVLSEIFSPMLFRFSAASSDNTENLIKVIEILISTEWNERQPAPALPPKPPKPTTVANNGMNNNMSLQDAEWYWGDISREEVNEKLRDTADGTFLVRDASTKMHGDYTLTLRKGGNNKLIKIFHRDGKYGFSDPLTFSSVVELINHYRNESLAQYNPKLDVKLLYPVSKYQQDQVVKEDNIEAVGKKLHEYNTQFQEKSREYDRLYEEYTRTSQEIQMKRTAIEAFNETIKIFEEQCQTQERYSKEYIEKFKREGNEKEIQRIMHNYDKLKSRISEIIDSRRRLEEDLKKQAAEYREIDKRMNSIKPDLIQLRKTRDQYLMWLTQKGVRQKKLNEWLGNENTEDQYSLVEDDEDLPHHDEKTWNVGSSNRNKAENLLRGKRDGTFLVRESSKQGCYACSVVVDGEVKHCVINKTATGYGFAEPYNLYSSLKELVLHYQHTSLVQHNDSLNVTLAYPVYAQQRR
The experiment can be described thus: PI3Kδ inhibition, modified PIK3CD Adapta TR-FRET kinase assay. The experiment is classed as biochemical. Conditions: 2 μM ATP, 50 μM PIP2, 1 hour at room temperature, pIC50 = -log(IC50 in M). As for the experimental part:
The activity of compounds as PI3Kδ inhibitors may be determined by a variety of methods, including in vitro and in vivo methods. The following in vitro assay measures a test compound's ability to inhibit PI3Kδ-mediated phosphorylation of PIP2 and ATP.
Recombinant GST-tagged PIK3CD is purchased from Invitrogen (Part Number: PV5274). The protein is full length and co-expressed with untagged PIK3R1, phosphoinositide-3-kinase regulatory subunit 1 (p85α). The protein is stored at −20° C. in 50 mM TRIS (pH 7.5), 150 mM NaCl, 0.5 mM EDTA, 0.02% Triton® X-100, 2 mM DTT, and 50% glycerol.
A modified PIK3CD Adapta® assay (Invitrogen, Carlsbad, Calif.) is used to measure PI3Kδ inhibition of the example compounds. The assay has two phases. In the first phase, kinase reaction components, which include the enzyme (PIK3CD), substrates (PIP2, ATP), test compound (inhibitor), and assay buffer are added to each well, and the reaction is allowed to incubate for a pre-determined period of time. After reaction, a detection solution composed of a Eu (europium)-labeled anti-ADP antibody, Alexa Fluor® 647-labeled ADP tracer, and EDTA (to stop the kinase reaction) is added to each assay well. In this second phase, ADP formed by the kinase reaction displaces the Alexa Fluor® 647-labeled ADP tracer from the antibody, resulting in a decrease in time-resolved fluorescence resonance energy transfer (TR-FRET) signal. In the presence of the inhibitor, the amount of ADP formed by the kinase reaction is reduced, and the resulting intact antibody-tracer interaction maintains a high TR-FRET signal.
The assay uses black Greiner® 384-well plates (784076). The reaction buffer contains 50 mM Hepes (pH 7.5), 3 mM MgCl2, 1 mM EGTA, 100 mM NaCl, 0.03% CHAPS; 2 mM DTT is added fresh prior to each experiment. Enzyme (4 μL, estimated 1.5 nM in buffer) is first added to the wells of the plate. Next, test compounds (2 μL) from a source plate (5% dilution plate) are introduced into the wells. The final DMSO concentration in each assay well is 1%. The dilution plate contains 5% DMSO in the bottom half of columns 23 and 24, which serve as negative (non-inhibited) controls; the top half contains a known inhibitor concentration (positive control) that gives >98% inhibition of the kinase reaction. Other wells contain test compounds serially diluted across the plate 11 times for a total of 12 data points. The kinase reactions are carried out at room temperature and are initiated by the addition of 4 μL of solution containing 2 μM ATP and 50 μM PIP2. Each reaction is stopped after 1 hour±10 minutes via addition of 10 μL stop solution, which contains a final assay concentration of 3 nM Alexa Fluor® 647-labeled ADP tracer, 2 nM Eu-anti-ADP Antibody, and 10 mM EDTA. After allowing the solutions to equilibrate for 30±10 minutes, a PHERAstar plate reader is used to excite the Eu donor (at 337 nm) and to detect emission from the Alexa Fluor® 647 at 665 nm. This emission signal is referenced or “ratioed” to the emission from Eu at 620 nm. The emission ratio (665 nm/620 nm) from each well is collected and converted to percent conversion using a standard curve for the assay conditions: % conversion=B*(C+A−emission ratio)/(emission ratio−C), where “A” and “C” are the maximum and minimum values of the emission ratio obtained from the standard curve of emission ratio vs. % conversion (ATP-ADP); “B” is the emission ratio corresponding to the % conversion at the EC50 value for the ADP Tracer—Eu anti-ADP antibody complex. The percent inhibition for a given inhibitor concentration is computed from % conversion for the reaction and for the positive and negative controls. Corresponding IC50 values are calculated by non-linear curve fitting of the compound concentrations and values of percent inhibition to the standard IC50 equation and are reported as pIC50, i.e., −log(IC50), where IC50 is molar concentration at 50% inhibition.
(In general: Time-resolved FRET reads energy transfer from a long-lived donor to a nearby acceptor.)
Take `Cc1nc(N)nc(N[C@@H](C)c2nc3ccn(C)c3cc2C2CCOCC2)c1C#N` [Example 25, (S)-2-Amino-4-methyl-6-((1-(1-methyl-6-(tetrahydro-2H-pyran-4-yl)-1H-pyrrolo[3,2-b]pyridin-5-yl)ethyl)amino)pyrimidine-5-carbonitrile]: the IC50 was < 1.26 nM.

With `C[C@H](Nc1nc(N)nc(N)c1C#N)c1nc2ccn(C)c2cc1C1CCOCC1` [Example 26, (S)-2,4-Diamino-6-((1-(1-methyl-6-(tetrahydro-2H-pyran-4-yl)-1H-pyrrolo[3,2-b]pyridin-5-yl)ethyl)amino)pyrimidine-5-carbonitrile], the IC50 is < 2 nM.

For the molecule `C[C@H](Nc1nc(N)nc2[nH]cnc12)c1nc2ccn(C)c2cc1N1CCOCC1` [Example 27, (S)—N^6-(1-(1-Methyl-6-morpholino-1H-pyrrolo[3,2-b]pyridin-5-yl)ethyl)-9H-purine-2,6-diamine], the IC50 is 10 nM.

As for `C[C@H](Nc1nc(N)nc(N)c1Cl)c1nc2ccn(C)c2cc1N1CCOCC1` [Example 28, (S)-5-Chloro-N^4-(1-(1-methyl-6-morpholino-1H-pyrrolo[3,2-b]pyridin-5-yl)ethyl)pyrimidine-2,4,6-triamine], the IC50 was 126 nM.

In the case of `C[C@H](Nc1nc(N)nc(N)c1C#N)c1nc2ccn(C)c2cc1N1CCOCC1` [Example 29, (S)-2,4-Diamino-6-((1-(1-methyl-6-morpholino-1H-pyrrolo[3,2-b]pyridin-5-yl)ethyl)amino)pyrimidine-5-carbonitrile], the IC50 is < 1.26 nM.

Turning to `Cc1noc(C)c1-c1cc2c(ccn2C)nc1[C@H](C)Nc1nc(N)nc(N)c1C#N` [Example 30, 2,4-Diamino-6-(((1S)-1-(6-(3,5-dimethylisoxazol-4-yl)-1-methyl-1H-pyrrolo[3,2-b]pyridin-5-yl)ethyl)amino)pyrimidine-5-carbonitrile], the IC50 is < 1 nM.

In the case of `Cc1nc(N)nc(N[C@@H](C)c2nc3ccn(C)c3cc2-c2c(C)noc2C)c1C#N` [Example 31, 2-Amino-4-(((1S)-1-(6-(3,5-dimethylisoxazol-4-yl)-1-methyl-1H-pyrrolo[3,2-b]pyridin-5-yl)ethyl)amino)-6-methylpyrimidine-5-carbonitrile], the IC50 is 3.98 nM.

For the molecule `C[C@H](Nc1nc(N)nc(N)c1C#N)c1nc2ccn(C)c2cc1-c1ccnn1C(F)F` [Example 32, (S)-2,4-Diamino-6-((1-(6-(1-(difluoromethyl)-1H-pyrazol-5-yl)-1-methyl-1H-pyrrolo[3,2-b]pyridin-5-yl)ethyl)amino)pyrimidine-5-carbonitrile], the IC50 is 1.58 nM.

As for `C[C@H](Nc1nc(N)nc(N)c1Cl)c1nc2ccn(C)c2cc1-c1ccnn1C` [Example 33, (S)-5-Chloro-N^4-(1-(1-methyl-6-(1-methyl-1H-pyrazol-5-yl)-1H-pyrrolo[3,2-b]pyridin-5-yl)ethyl)pyrimidine-2,4,6-triamine], the IC50 was 31.6 nM.

In the case of `C[C@H](Nc1nc(N)nc2[nH]cnc12)c1nc2ccn(C)c2cc1-c1ccccn1` [Example 34, (S)—N^6-(1-(1-Methyl-6-(pyridin-2-yl)-1H-pyrrolo[3,2-b]pyridin-5-yl)ethyl)-9H-purine-2,6-diamine], the IC50 is 5.01 nM.

With `C[C@H](Nc1nc(N)nc(N)c1C#N)c1nc2ccn(C)c2cc1-c1ccnn1C1CC1` [Example 35, (S)-2,4-Diamino-6-((1-(6-(1-cyclopropyl-1H-pyrazol-5-yl)-1-methyl-1H-pyrrolo[3,2-b]pyridin-5-yl)ethyl)amino)pyrimidine-5-carbonitrile], the 50% inhibitory concentration (IC50) was 2.51 nM.

As for `C[C@H](Nc1nc(N)nc2[nH]cnc12)c1nc2ccn(C)c2cc1-c1ccnn1C1CC1` [Example 36, (S)-N^6-(1-(6-(1-Cyclopropyl-1H-pyrazol-5-yl)-1-methyl-1H-pyrrolo[3,2-b]pyridin-5-yl)ethyl)-9H-purine-2,6-diamine], the IC50 was 10 nM.

For the molecule `C[C@H](Nc1nc(N)nc2[nH]cnc12)c1nc2ccn(C)c2cc1-c1ccnn1C(F)F` [Example 37, (S)-N^6-(1-(6-(1-(Difluoromethyl)-1H-pyrazol-5-yl)-1-methyl-1H-pyrrolo[3,2-b]pyridin-5-yl)ethyl)-9H-purine-2,6-diamine], the IC50 is 10 nM.

As for `CC(Nc1nc(N)nc(N)c1Cl)c1nc2ccn(C)c2cc1N1CC(F)(F)C1` (centres unmarked) [Example 38, 5-Chloro-N^4-(1-(6-(3,3-difluoroazetidin-1-yl)-1-methyl-1H-pyrrolo[3,2-b]pyridin-5-yl)ethyl)pyrimidine-2,4,6-triamine], the IC50 is 158 nM.

For the molecule `CC(Nc1nc(N)nc(N)c1C#N)c1nc2ccn(C)c2cc1N1CC(O)C1` (centres unmarked) [Example 39, 2,4-Diamino-6-((1-(6-(3-hydroxyazetidin-1-yl)-1-methyl-1H-pyrrolo[3,2-b]pyridin-5-yl)ethyl)amino)pyrimidine-5-carbonitrile], the 50% inhibitory concentration (IC50) is < 1.58 nM.

Turning to `CC(Nc1nc(N)nc(N)c1Cl)c1nc2ccn(C)c2cc1N1CC(O)C1` (centres unmarked) [Example 40, 1-(5-(1-((2,6-Diamino-5-chloropyrimidin-4-yl)amino)ethyl)-1-methyl-1H-pyrrolo[3,2-b]pyridin-6-yl)azetidin-3-ol], the IC50 is 79.4 nM.

On to `COC1CN(c2cc3c(ccn3C)nc2[C@H](C)Nc2nc(N)nc(N)c2C#N)C1` [Example 41, (S)-2,4-Diamino-6-((1-(6-(3-methoxyazetidin-1-yl)-1-methyl-1H-pyrrolo[3,2-b]pyridin-5-yl)ethyl)amino)pyrimidine-5-carbonitrile], for which the IC50 was < 1.58 nM.

With `C[C@@H](Nc1nc(N)nc(N)c1C#N)c1nc2ccn(C)c2cc1N1CC(F)(F)C1` [Example 43, (R)-2,4-Diamino-6-((1-(6-(3,3-difluoroazetidin-1-yl)-1-methyl-1H-pyrrolo[3,2-b]pyridin-5-yl)ethyl)amino)pyrimidine-5-carbonitrile], the IC50 is 1000 nM.

On to `C[C@H](Nc1nc(N)nc(N)c1C#N)c1nc2ccn(C)c2cc1N1CC(F)(F)C1` [Example 44, (S)-2,4-Diamino-6-((1-(6-(3,3-difluoroazetidin-1-yl)-1-methyl-1H-pyrrolo[3,2-b]pyridin-5-yl)ethyl)amino)pyrimidine-5-carbonitrile], for which the IC50 is 2 nM.

Regarding `C[C@@H](Nc1nc(N)nc(N)c1C#N)c1nc2ccn(C)c2cc1N1CC2(COC2)C1` [Example 46, (R)-2,4-Diamino-6-((1-(1-methyl-6-(2-oxa-6-azaspiro[3.3]heptan-6-yl)-1H-pyrrolo[3,2-b]pyridin-5-yl)ethyl)amino)pyrimidine-5-carbonitrile], the IC50 was 200 nM.

Take `C[C@H](Nc1nc(N)nc(N)c1C#N)c1nc2ccn(C)c2cc1N1CC2(COC2)C1` [Example 47, (S)-2,4-Diamino-6-((1-(1-methyl-6-(2-oxa-6-azaspiro[3.3]heptan-6-yl)-1H-pyrrolo[3,2-b]pyridin-5-yl)ethyl)amino)pyrimidine-5-carbonitrile]: the IC50 was 15.8 nM.

In the case of `C[C@@H](Nc1nc(N)nc(N)c1C#N)c1nc2ccn(C)c2cc1N1CCOCC1` [Example 48, (R)-2,4-Diamino-6-((1-(1-methyl-6-morpholino-1H-pyrrolo[3,2-b]pyridin-5-yl)ethyl)amino)pyrimidine-5-carbonitrile], the IC50 was 79.4 nM.

Take `C[C@H](Nc1nc(N)nc(N)c1C#N)c1nc2c(O)cn(C)c2cc1N1CCOCC1` [Example 49, (S)-2,4-Diamino-6-((1-(3-hydroxy-1-methyl-6-morpholino-1H-pyrrolo[3,2-b]pyridin-5-yl)ethyl)amino)pyrimidine-5-carbonitrile]: the concentration for half-maximal inhibition (IC50) was 251 nM.
